Experimental data taken from ChEMBL document CHEMBL1121895, “Pyrazolodiazepines. 3. 4-Aryl-1,6,7,8-tetrahydro-1,3-dialkylpyrazolo[3,4-e][1,4]diazepines as antidepressant agents” (1981).

Columns and labels:
Type in all cases: functional
[1] = organism: Rattus norvegicus; test: Time-related potentiation of methamphetamine-induced anorexia in rats at the lowest active dose.; settings: read-out: MED
[2] = organism: Rattus norvegicus; test: Potentiation of Methamphetamine effect for intracranial self stimulation(SS) in rats
[3] = tested on: Rattus norvegicus; test: Amount of milk ingested after the 120 min methamphetamine-challenges, produced by the compound at 1.25 mg/kg in fasted rats
[4] = tested on: Rattus norvegicus; test: Amount of milk ingested after the 120 min methamphetamine-challenges, produced by the compound at 10 mg/kg in fasted rats
[5] = tested on: Rattus norvegicus; test: Amount of milk ingested after the 120 min methamphetamine-challenges, produced by the compound at 0.312 mg/kg in fasted rats
[6] = tested on: Rattus norvegicus; test: Amount of milk ingested after the 120 min methamphetamine-challenges, produced by the compound at 2.5 mg/kg in fasted rats
[7] = tested on: Rattus norvegicus; test: Amount of milk ingested after the 120 min methamphetamine-challenges, produced by the compound at 5 mg/kg in fasted rats
[8] = tested on: Rattus norvegicus; test: Amount of milk ingested after the 15 min methamphetamine-challenges, produced by the compound at 0.312 mg/kg in fasted rats
[9] = tested on: Rattus norvegicus; test: Amount of milk ingested after the 15 min methamphetamine-challenges, produced by the compound at 0.625 mg/kg in fasted rats
[10] = tested on: Rattus norvegicus; test: Amount of milk ingested after the 15 min methamphetamine-challenges, produced by the compound at 1.25 mg/kg in fasted rats
[11] = tested on: Rattus norvegicus; test: Amount of milk ingested after the 15 min methamphetamine-challenges, produced by the compound at 10 mg/kg in fasted rats
[12] = tested on: Rattus norvegicus; test: Amount of milk ingested after the 15 min methamphetamine-challenges, produced by the compound at 2.5 mg/kg in fasted rats
[13] = tested on: Rattus norvegicus; test: Amount of milk ingested after the 15 min methamphetamine-challenges, produced by the compound at 5 mg/kg in fasted rats
[14] = tested on: Rattus norvegicus; test: Amount of milk ingested after the 120 min methamphetamine-challenges, produced by the compound at 0.625 mg/kg in fasted rats

Compound	minimal effective dose [1]	also measured
Cc1nn(C)c2c1C(c1cccc(Cl)c1)=NCCN2C	0.63 mg/kg	–
CCn1nc(C)c2c1N(C)CCN=C2c1ccccc1Cl	5 mg/kg	Dose [2]: >10 mg/kg
Cc1nn(C)c2c1C(c1cccc(Cl)c1)=[N+]([O-])CCN2	> 10 mg/kg	–
COc1ccc(C2=NCCNc3c2c(C)nn3C)cc1	> 10 mg/kg	–
Cc1nn(C)c2c1C(c1cccc(Cl)c1)=NCCN2 [ZOMETAPINE]	0.63 mg/kg	Dose [2]: 1.25 mg/kg; Amount [3]: 0.2 mL; Amount [4]: 0.1 mL; Amount [5]: 3.6 mL; Amount [6]: 0.2 mL; Amount [7]: 0.1 mL; Amount [8]: 4.2 mL; Amount [9]: 1.1 mL; Amount [10]: 1.7 mL; Amount [11]: 0 mL; Amount [12]: 0 mL; Amount [13]: 0.1 mL; Amount [14]: 0.5 mL
CN(C)CCCN1c2ccccc2CCc2ccccc21 [IMIPRAMINE]	2.5 mg/kg	Dose [2]: 1.25 mg/kg; Amount [3]: 4.8 mL; Amount [4]: 0 mL; Amount [6]: 2.2 mL; Amount [7]: 0.1 mL; Amount [9]: 4 mL; Amount [10]: 2.7 mL; Amount [11]: 0 mL; Amount [12]: 3.3 mL; Amount [13]: 0.5 mL; Amount [14]: 3.3 mL
Cc1ccc(C2=NCCN(CCCN(C)C)c3c2c(C)nn3C)cc1	> 10 mg/kg	–
Cc1cccc(C2=NC(C)(C)CNc3c2c(C)nn3C)c1	> 10 mg/kg	–
Cc1cccc(C2=NCCN(CCCN(C)C)c3c2c(C)nn3C)c1	> 10 mg/kg	–
Cc1nn(C)c2c1C(c1ccccc1Cl)=NCC(C#N)N2 (stereo unspecified)	> 10 mg/kg	–
Cc1nn(C)c2c1C(c1cccc(O)c1)=NCCN2	2.5 mg/kg	Dose [2]: 10 mg/kg
Cc1nn(C)c2c1C(c1cccc(Cl)c1)=NCCN2CCCN(C)C	> 10 mg/kg	–
Cc1cccc(C2=NCCNc3c2c(C)nn3C)c1	2.5 mg/kg	Dose [2]: 10 mg/kg
Cc1nn(C)c2c1C(c1ccccc1)=NC(C)C(C)N2 (stereo unspecified)	10 mg/kg	–
Cc1nn(C)c2c1C(c1ccc(O)cc1)=NCCN2C	2.5 mg/kg	Dose [2]: 5 mg/kg
Cc1nn(C)c2c1C(c1cccc(Cl)c1)=NC(C)CN2 (stereo unspecified)	0.63 mg/kg	–
Cc1nn(C)c2c1C(c1cccc(Cl)c1)=NCCN2N=O	1.25 mg/kg	–
Cc1nn(C)c2c1C(c1cccc([N+](=O)[O-])c1)=NCCN2	5 mg/kg	–
CCc1nn(C)c2c1C(c1cccc(Br)c1)=NCCN2	1.25 mg/kg	Dose [2]: 5 mg/kg
Cc1ccc(C2=NCCNc3c2c(C)nn3C)cc1	2.5 mg/kg	–
CCN1CCN=C(c2cccc(Cl)c2)c2c(C)nn(C)c21	0.63 mg/kg	–
Cc1nn(C)c2c1C(c1cccc(N)c1)=NCCN2	2.5 mg/kg	–
CC(=O)N1CCN=C(c2cccc(Cl)c2)c2c(C)nn(C)c21	> 10 mg/kg	–
Cc1nn(C)c2c1C(c1cccc(F)c1)=NCCN2CCCN(C)C	> 10 mg/kg	–
CCc1nn(C)c2c1C(c1cccc(F)c1)=NCCN2	2.5 mg/kg	–

Compound	minimal effective dose [1]	also measured
Cc1nn(C)c2c1C(c1ccc(Cl)c(Cl)c1)=NCCN2	2.5 mg/kg	–
Cc1nn(C)c2c1C(c1ccccc1Cl)=NCCN2CCCN(C)C	> 10 mg/kg	–
Cc1nn(C)c2c1C(c1ccccc1)=NCCN2CCCN(C)C	> 10 mg/kg	–
Cc1nn(C)c2c1C(c1ccccc1Cl)=NCCN2	2.5 mg/kg	–
Cc1nn(C)c2c1C(c1ccccc1)=NCC1CCCCN21 (stereo unspecified)	5 mg/kg	–
Cc1nn(C)c2c1C(c1cccc(Cl)c1)=NCCN2CCN1CCCC1	> 10 mg/kg	–
Cc1nn(C)c2c1C(c1cccc(C#N)c1)=NCCN2	1.25 mg/kg	–
COc1cc(OC)cc(C2=NCCNc3c2c(C)nn3C)c1	2.5 mg/kg	Dose [2]: 10 mg/kg
Cc1ccc(C)c(C2=NCCNc3c2c(C)nn3C)c1	> 10 mg/kg	–
Cc1nn(C)c2c1C(c1cccc(C(F)(F)F)c1)=NCCN2	0.63 mg/kg	Dose [2]: 1.25 mg/kg
Cc1nn(C)c2c1C(c1ccccc1)=NCCN2.Cl	2.5 mg/kg	–
CCn1nc(C)c2c1NCCN=C2c1cccc(C(F)(F)F)c1	0.63 mg/kg	–
Cc1nn(C)c2c1C(c1cccc(N=[N+]=[N-])c1)=NCCN2	2.5 mg/kg	–
Cc1nn(C)c2c1C(c1ccccc1Cl)=NCCN2C	2.5 mg/kg	–
Cc1nn(C)c2c1C(c1ccccc1)=NCCN2C	2.5 mg/kg	Dose [2]: >10 mg/kg
Cc1nn(C)c2c1C(c1cccc(Cl)c1)=NC(C)(C)CN2	2.5 mg/kg	Dose [2]: 10 mg/kg
Cc1nn(C)c2c1C(c1cccc(Cl)c1)=NCC1CCCCN21 (stereo unspecified)	2.5 mg/kg	–
CCc1nn(C)c2c1C(c1cccc(C)c1)=NCCN2	5 mg/kg	–
Cc1nn(C)c2c1C(c1ccc(Cl)cc1)=NCCN2	2.5 mg/kg	–
Cc1nn(C)c2c1C(c1cccc(F)c1)=NCCN2	2.5 mg/kg	Dose [2]: 2.5 mg/kg
CCc1nn(C)c2c1C(c1cccc(F)c1)=NCCN2CCCN(C)C	> 10 mg/kg	–
Cc1nn(C)c2c1C(c1cccc(Cl)c1C)=NCCN2	1.25 mg/kg	Dose [2]: 5 mg/kg
Cc1cc(C)cc(C2=NCCNc3c2c(C)nn3C)c1	> 10 mg/kg	–
Cc1nn(C)c2c1C(c1cccc(Br)c1)=NCCN2	0.63 mg/kg	Dose [2]: 5 mg/kg
Cc1n[nH]c2c1C(c1cccc(Cl)c1)=NCCN2	2.5 mg/kg	–
